Test results from US20090143400A1, “PURINE DERIVATIVES HAVING IMMUNO-MODULATING PROPERTIES” (priority 2005, published 2009).
In brackets after ≈: the same amount, converted by molar mass.

What was measured:
[1] = Solubility testing; assay type: physicochemical; settings: aqueous buffer, thermodynamic from solid; 0.1 M phosphate buffer, shaken overnight at 20° C., HPLC/UV; Examples of the invention
Procedure: Saturated solutions for determining the solubility were prepared by placing about 0.3-3.0 ml of 0.1 M phosphare buffer in glass screw-top sample tubes along with some of the test compound. The tubes were then shaken overnight at constant temperature (20° C.). After shaking, undissolved material should be present in the solution, and more test compound should be added and shaking continued if this is not the case. The samples were then transferred to a centrifuge tube and centrifuged using a Heraeus Biofuge Fresco centrifuge at 13000 rpm for 30 minutes. The supernatant was then removed, placed in a new centrifuge tube and centrifuged again for 30 minutes at 13000 rpm. The undissolved material formed a pellet at the bottom of the tube and the liquid above the pellet was removed and was ready for assaying. The solution was then analysed using HPLC with UV quantification. A standard was also prepared by accurately weighing a sample of the test compound and dissolving it in a suitable volume of a solvent that will dissolve it completely (typically, DMSO, ethanol or methanol). This sample was then analysed by HPLC/UV.
The solubility was calculated from the observed peak areas in the HPLC/UV chromatograms along with corrections for any dilutions of the sample and differences in injection volumes. The following equation was used: […]

[2] = test system: rat spleen cells; assay type: cell-based
[3] = target: T1, human TLR7 (Homo sapiens, UniProt Q9NYK1); test: Human TLR7 assay (HEK293 SEAP reporter); assay type: cell-based; settings: minimal effective concentration to induce SEAP release; HEK293 with recombinant human TLR7, overnight incubation at 37° C., 0.1% DMSO
T1 construct: expressed in transfected cells; host or cells: HEK293 cell line stably expressing the pNiFty2-SEAP reporter plasmid
T1 sequence (Q9NYK1 27-1049): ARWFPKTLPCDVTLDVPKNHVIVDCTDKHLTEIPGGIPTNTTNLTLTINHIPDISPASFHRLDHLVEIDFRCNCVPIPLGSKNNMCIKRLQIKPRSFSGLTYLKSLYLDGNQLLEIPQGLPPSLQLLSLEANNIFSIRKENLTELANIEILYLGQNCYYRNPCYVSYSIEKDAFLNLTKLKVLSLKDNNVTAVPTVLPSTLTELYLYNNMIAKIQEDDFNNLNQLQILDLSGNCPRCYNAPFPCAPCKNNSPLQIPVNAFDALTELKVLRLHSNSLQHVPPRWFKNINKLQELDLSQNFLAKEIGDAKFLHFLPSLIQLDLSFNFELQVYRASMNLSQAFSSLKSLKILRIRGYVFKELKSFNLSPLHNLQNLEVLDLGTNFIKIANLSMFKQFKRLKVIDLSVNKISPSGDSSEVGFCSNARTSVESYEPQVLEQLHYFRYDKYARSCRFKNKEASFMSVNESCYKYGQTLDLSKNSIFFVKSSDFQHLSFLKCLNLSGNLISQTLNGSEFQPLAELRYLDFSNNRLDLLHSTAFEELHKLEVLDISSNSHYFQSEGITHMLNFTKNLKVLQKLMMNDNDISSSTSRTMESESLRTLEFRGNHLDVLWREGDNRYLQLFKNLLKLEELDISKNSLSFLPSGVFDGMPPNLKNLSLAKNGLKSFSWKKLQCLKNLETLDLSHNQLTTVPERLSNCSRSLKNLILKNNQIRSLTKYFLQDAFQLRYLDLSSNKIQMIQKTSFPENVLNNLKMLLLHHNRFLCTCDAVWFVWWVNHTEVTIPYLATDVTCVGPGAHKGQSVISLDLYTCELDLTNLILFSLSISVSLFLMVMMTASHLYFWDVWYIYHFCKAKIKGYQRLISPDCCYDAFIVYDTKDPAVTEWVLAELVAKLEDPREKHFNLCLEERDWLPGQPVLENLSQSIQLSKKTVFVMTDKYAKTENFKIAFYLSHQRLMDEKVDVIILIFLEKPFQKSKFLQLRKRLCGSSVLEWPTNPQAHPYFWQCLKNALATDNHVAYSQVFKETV
Text: Recombinant human TLR7 was stably expressed in a HEK293 cell line already stably expressing the pNiFty2-SEAP reporter plasmid; integration of the reporter gene was maintained by selection with the antibiotic zeocin. The most common variant sequence of human TLR7 (represented by the EMBL sequence AF240467) was cloned into the mammalian cell expression vector pUNO and transfected into this reporter cell-line. Transfectants with stable expression were selected using the antibiotic blasticidin. In this reporter cell-line, expression of secreted alkaline phosphatase (SEAP) is controlled by an NFkB/ELAM-1 composite promoter comprising five NFkB sites combined with the proximal ELAM-1 promoter. TLR signaling leads to the translocation of NFkB and activation of the promoter results in expression of the SEAP gene. TLR7-specific activation was assessed by determining the level of SEAP produced following overnight incubation of the cells at 37° C. with the standard compound in the presence of 0.1% (v/v) dimethylsulfoxide (DMSO). Concentration dependent induction of SEAP production by compounds was expressed as the minimal effective concentration of compound to induce SEAP release (pMEC).

CCCCOc1nc(N)c2[nH]c(=O)n(CCCN(CCCN(C)C)Cc3cccc(CC(=O)OC)c3)c2n1 [Example 1, Methyl [3-({[3-(6-amino-2-butoxy-8-oxo-7,8-dihydro-9H-purin-9-yl)propyl][3-(dimethylamino)propyl]amino}methyl)phenyl]acetate]
solubility [1]: 980 µg/mL (≈ 1860 µM) | Log MEC [2]: 9.5

CCCCOc1nc(N)c2[nH]c(=O)n(CCCN(CCCN3CCCC3)Cc3cccc(CC(=O)OC)c3)c2n1 [Example 2, Methyl (3-{[[3-(6-amino-2-butoxy-8-oxo-7,8-dihydro-9H-purin-9-yl)propyl](3-pyrrolidin-1-ylpropyl)amino]methyl}phenyl)acetate]
solubility [1]: 1940 µg/mL (≈ 3500 µM) | pMEC [3]: 7.4 | Log MEC [2]: 9.5

CCCCOc1nc(N)c2[nH]c(=O)n(CCCCN(CCCN3CCN(C)CC3)Cc3cccc(CC(=O)OC)c3)c2n1 [Example 6, Methyl [3-({[4-(6-amino-2-butoxy-8-oxo-7,8-dihydro-9H-purin-9-yl)butyl][3-(4-methylpiperazin-1-yl)propyl]amino}methyl)phenyl]acetate]
solubility [1]: 1210 µg/mL (≈ 2030 µM) | Log MEC [2]: 9.0

CCCCOc1nc(N)c2[nH]c(=O)n(CCCN(CCCNC)Cc3cccc(CC(=O)OC)c3)c2n1 [Example 5, Methyl [3-({[3-(6-amino-2-butoxy-8-oxo-7,8-dihydro-9H-purin-9-yl)propyl][3-(methylamino)propyl]amino}methyl)phenyl]acetate]
solubility [1]: 1820 µg/mL (≈ 3540 µM) | pMEC [3]: 7.2 | Log MEC [2]: 9.5

CCCCOc1nc(N)c2[nH]c(=O)n(CCCN(CCN(C)C)Cc3cccc(CC(=O)OC)c3)c2n1 [Example 4, Methyl [3-({[3-(6-amino-2-butoxy-8-oxo-7,8-dihydro-9H-purin-9-yl)propyl][2-(dimethylamino)ethyl]amino}methyl)phenyl]acetate]
solubility [1]: 830 µg/mL (≈ 1620 µM) | Log MEC [2]: 9.5

CCCCOc1nc(N)c2[nH]c(=O)n(CCCN(CCCN3CCN(C)CC3)Cc3cccc(CC(=O)OC)c3)c2n1 [Example 3, Methyl [3-({[3-(6-amino-2-butoxy-8-oxo-7,8-dihydro-9H-purin-9-yl)propyl][3-(4-methylpiperazin-1-yl)propyl]amino}methyl)phenyl]acetate]
solubility [1]: 850 µg/mL (≈ 1460 µM) | pMEC [3]: 7.7 | Log MEC [2]: 9.5
